The results in this text go back to patent publication US11147853B2, “Polypeptide binding to a plurality of amyloid monomers and aggregates, and use thereof” (Hangzhou Wisdom Panacea Biologics Co., Ltd., priority 2015, dated 2021).

Where two headings read alike, the source gives them in different places. Where no end group is shown, it is not given here.

One series deals with Aβ42 oligomers (Homo sapiens, UniProt P05067). Nature of the series: ELISA binding of histidine-tagged ZR derivatives to Aβ42 oligomers.
Sequence of Aβ42 oligomers (P05067 672-713 limits assumed): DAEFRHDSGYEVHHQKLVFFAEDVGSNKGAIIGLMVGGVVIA
Series [1] concerns SH-SY5Y cells. Conditions: for cell activity (MTT, relative to PBS control): Aβ42 4 μM, 48 hours, Aβ42 alone 71%.
Description: (§1) SH-SY5Y cells were prepared into a single cell suspension with a medium (DMEM) containing 10% fetal bovine serum and then inoculated into a 96-well cell culture plate at 10000 cells per well and with a volume of 100 μL per well. The cells were incubated at 37° C., 5% of CO2 concentration for 24 hours in an incubator.
Aβ42: the final concentration of Aβ42 was 4 μM; a mixture of Aβ42 and ZR (Aβ:ZR=1:0.5): the final concentration of Aβ42 protein was 4 μM and the final concentration of ZR was 2 μM; a mixture of Aβ42 and ZR (Aβ: ZR=1:1): the final concentration of Aβ42 protein was 4 μM and the final concentration of ZR was 4 μM;
(§2) Cells were further cultured for 48 hours, then 10 μL of MTT solution was added into each well and incubated at 37° C. for 3 hours. Then the incubation was stopped by adding 100 μL dissolve solution (10% SDS and 5% iso-butanol dissolved in 0.01 M HCL) to each well, and incubated at 37° C. overnight to fully dissolve the MTT crystals. The absorbance of each well was measured on a multifunctional ELISA reader at a wavelength of 570 nm. After subtracting the background, the absorbance of the sample was divided by the absorbance of PBS control to act as an indicator of the cell activity, and the significant differences were analyzed.
Series [2] deals with SH-SY5Y cells. Conditions: for cell activity (MTT, relative to PBS control): amylin 4 μM, 48 hours, amylin alone 61%.
Description: as §1
Amylin: the final concentration of amylin was 4 μM; a mixture of Amylin and ZR (Amylin:ZR=1:1): the final concentration of Amylin protein was 4 μM and the final concentration of ZR was 4 μM; a mixture of Amylin and ZR (Amylin: ZR=1:10): the final concentration of Amylin protein was 4 μM and the final concentration of ZR was 40 μM;
as §2
Series [3] concerns SH-SY5Y cells. Conditions: for cell activity (MTT, relative to PBS control): lysozyme 20 μM, 48 hours, lysozyme alone 55%.
Description: as §1
Lysozyme: the final concentration of lysozyme was 20 μM; a mixture of lysozyme and ZR (lysozyme:ZR=1:1): the final concentration of lysozyme protein was 20 μM and the final concentration of ZR was 20 μM; a mixture of lysozyme and ZR (lysozyme: ZR=1:10): the final concentration of lysozyme protein was 20 μM and the final concentration of ZR was 200 μM;
as §2
Series [4] relates to SH-SY5Y cells. Conditions: for cell activity (MTT, relative to PBS control): insulin 60 μM, 48 hours, insulin alone 77%.
Description: as §1
Insulin: the final concentration of insulin was 60 μM; a mixture of insulin and ZR (insulin:ZR=1:1): the final concentration of insulin protein was 60 μM and the final concentration of ZR was 60 μM; a mixture of insulin and ZR (insulin: ZR=1:5): the final concentration of insulin protein was 60 μM and the final concentration of ZR was 300 μM; PBS was used as control;
as §2

In the case of SFFNAKR [sequence 11], in the series with Aβ42 oligomers, the “OD450 of binding to Aβ42 oligomers” value came out at 0.18.

On to AFFNNKR [sequence 7], for which the “OD450 of binding to Aβ42 oligomers” value with Aβ42 oligomers is on record as 0.22.

Turning to SFFNNKA [sequence 13], the “OD450 of binding to Aβ42 oligomers” value with Aβ42 oligomers worked out at 0.14.

For the substance “SFFNNKR [ZR, Ser-Phe-Phe-Asn-Asn-Lys-Arg]”, the “cell activity (MTT, relative to PBS control)” value worked out at 80% in the series with SH-SY5Y cells [1] (ZR 2 μM (Aβ:ZR=1:0.5)); 82% with SH-SY5Y cells [1] (ZR 4 μM (Aβ:ZR=1:1)); 70% in the series on SH-SY5Y cells [2] (ZR 4 μM (Amylin:ZR=1:1)); 75% in the series on SH-SY5Y cells [2] (ZR 40 μM (Amylin:ZR=1:10)); 85% with SH-SY5Y cells [3] (ZR 20 μM (lysozyme:ZR=1:1)); 93% in the series on SH-SY5Y cells [3] (ZR 200 μM (lysozyme:ZR=1:10)). In addition, the “cell activity (MTT, relative to PBS control)” value with SH-SY5Y cells [4] (ZR 60 μM (insulin:ZR=1:1)) amounted to 92%; in the series on SH-SY5Y cells [4] (ZR 300 μM (insulin:ZR=1:5)), 102%. Besides, the “inhibition of cytotoxicity induced by Aβ42” value in the series with SH-SY5Y cells [1] (molar ratio 1:1) is recorded as 37.8%. Further, the “inhibition of cytotoxicity induced by amylin” value with SH-SY5Y cells [2] (molar ratio 1:10) was determined as 45.4%. Moreover, the “inhibition of cytotoxicity induced by lysozyme” value in the series with SH-SY5Y cells [3] (molar ratio 1:10) amounted to 117.6%. Further, the “inhibition of cytotoxicity induced by insulin” value in the series with SH-SY5Y cells [4] (molar ratio 1:5) is 89.8%.

For SFANNKR [sequence 9], in the series with Aβ42 oligomers, the “OD450 of binding to Aβ42 oligomers” value is 0.15.

Consider SFFNNAR [sequence 12], for which the “OD450 of binding to Aβ42 oligomers” value with Aβ42 oligomers is 0.14.
